Experiment [1] has as its system Mtb H37Rv attB::guaB2^Y487C. Format: cell-based, Mycobacterium tuberculosis.
A further experiment has as its target Mtb GuaB2^Y487C (Mycobacterium tuberculosis, UniProt P9WKI7, Y487C). Format: biochemical.
Experiment [2] has as its system Mtb SRMV2.6 attB::guaB2^Y487C. Format: cell-based, Mycobacterium tuberculosis.

“Also recorded” adds a separate entry of the source.

For the molecule `O=C(C1CCCCC1)N1CCN(S(=O)(=O)c2cccc3cnccc23)CC1` [VCC234718, N-(5-Isoquinolinylsulfonyl)-N’-cyclohexanoyl-piperazine], the MIC90 is >100 µM in experiment [1] and >200 µM in experiment [2]. The “inhibition of Mtb GuaB2^Y487C” value at Mtb GuaB2^Y487C was “inactive; also recorded: refractory to inhibition”.

What is called MIC90 is an inhibitory concentration at the 90% level, which refers to growth in some studies and to a panel of isolates in others. Lower therefore signals greater potency.

These data come from publication PMC5241705 (ACS Infectious Diseases, 2016).
